# Measured values as given in article PMC6017357, “In Vitro Inhibitory Effects of Synthetic Cannabinoid EAM-2201 on Cytochrome P450 and UDP-Glucuronosyltransferase Enzyme Activities in Human Liver Microsomes” (Molecules : A Journal of Synthetic Chemistry and Natural …, 2018).
# How the values were obtained:
# UGT2B7 = target: T1, UGT2B7 (Homo sapiens, UniProt P16662); assay: UGT2B7-catalyzed naloxone 3-β-D-glucuronidation in human liver microsomes; format: in vitro ADME; conditions: at 50 µM
# T1 construct: ultrapooled human liver microsomes (0.2 mg/mL), 5 mM UDPGA; from tissue; host or cells: ultrapooled human liver microsomes
# T1 sequence (P16662 24-529): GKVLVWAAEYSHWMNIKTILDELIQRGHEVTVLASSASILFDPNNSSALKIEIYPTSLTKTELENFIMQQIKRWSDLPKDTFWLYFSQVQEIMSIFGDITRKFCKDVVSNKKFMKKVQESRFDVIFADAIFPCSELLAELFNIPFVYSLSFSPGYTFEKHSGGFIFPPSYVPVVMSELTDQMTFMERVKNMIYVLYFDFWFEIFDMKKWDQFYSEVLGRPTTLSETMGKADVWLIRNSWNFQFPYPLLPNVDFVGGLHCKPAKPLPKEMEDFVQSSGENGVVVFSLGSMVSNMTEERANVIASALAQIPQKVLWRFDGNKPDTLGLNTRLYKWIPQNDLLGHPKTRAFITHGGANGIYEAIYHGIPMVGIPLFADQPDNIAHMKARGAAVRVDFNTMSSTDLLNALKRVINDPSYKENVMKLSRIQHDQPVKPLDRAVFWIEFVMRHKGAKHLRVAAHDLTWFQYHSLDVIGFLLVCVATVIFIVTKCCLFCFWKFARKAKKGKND
# Description: (§1) The inhibitory effects of EAM-2201 on UGT1A1, UGT1A3, UGT1A4, UGT1A6, UGT1A9 and UGT2B7 were evaluated using LC-MS/MS and the cocktail of UGT substrates as previously described. Each incubation mixture was prepared in a final volume of 100 µL as follows: ultrapooled human liver microsomes (0.2 mg/mL), 5 mM UDPGA, 10 mM magnesium chloride, alamethicin (25 µg/mL), 50 mM Tris buffer (pH 7.4), various concentrations of EAM-2201 in DMSO (final concentrations of 1–50 µM, 0.5% DMSO) and the UGT enzyme-specific substrates of two cocktail sets (set A: 0.5 µM SN-38, 2 µM chenodeoxycholic acid and 0.5 µM trifluoperazine; set B: 1 µM N-acetylserotonin, 0.2 µM mycophenolic acid and 1 µM naloxone, acetonitrile content, 0.5%). […] Supernatant from sets A and B (50 µL of each) was mixed and aliquots (5 µL) were analyzed by LC-MS/MS. […]
# (§2) The metabolites formed from the six UGT cocktail substrates were simultaneously measured using LC-MS/MS [41]. […] Each metabolite was quantified via SRM in the negative ion mode: chenodeoxycholic acid 24-acyl-β-glucuronide, 567.2 > 391.0; mycophenolic acid glucuronide, 495.2 > 318.9; and propofol glucuronide (IS), 353.3 > 177.1; and in the positive ion mode: SN-38 glucuronide, 569.0 > 393.0; trifluoperazine glucuronide, 584.2 > 408.1; N-acetylserotonin-β-D-glucuronide, 395.2 > 219.0; naloxone 3-β-D-glucuronide, 504.0 > 310.0; and meloxicam (IS), 352.0 > 115.1. […]
# UGT1A1 = target: T2, UGT1A1 (Homo sapiens, UniProt P22309); assay: UGT1A1-catalyzed SN-38 glucuronidation in human liver microsomes; format: in vitro ADME; conditions: at 50 µM
# T2 construct: ultrapooled human liver microsomes (0.2 mg/mL), 5 mM UDPGA; from tissue; host or cells: ultrapooled human liver microsomes
# T2 sequence (P22309 26-533): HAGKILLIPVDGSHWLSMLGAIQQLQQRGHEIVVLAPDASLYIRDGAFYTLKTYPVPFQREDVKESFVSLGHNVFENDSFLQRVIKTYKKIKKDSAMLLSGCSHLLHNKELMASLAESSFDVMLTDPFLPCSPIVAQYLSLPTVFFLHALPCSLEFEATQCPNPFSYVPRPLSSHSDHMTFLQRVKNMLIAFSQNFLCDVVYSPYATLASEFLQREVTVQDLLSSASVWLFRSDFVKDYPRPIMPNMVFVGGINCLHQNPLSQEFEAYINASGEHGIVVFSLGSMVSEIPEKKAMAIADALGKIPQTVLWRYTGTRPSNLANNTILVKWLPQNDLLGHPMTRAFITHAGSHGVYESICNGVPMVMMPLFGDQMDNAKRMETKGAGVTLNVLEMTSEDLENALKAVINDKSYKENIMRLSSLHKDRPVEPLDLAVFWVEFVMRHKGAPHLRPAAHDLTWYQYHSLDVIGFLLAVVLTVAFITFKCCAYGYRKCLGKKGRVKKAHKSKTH
# Description: as §1, §2
structure (smiles),measurement,setting,value
"CCc1ccc(C(=O)c2cn(CCCCCF)c3ccccc23)c2ccccc12 [EAM-2201, (4-ethyl-1-naphthalenyl)[1-(5-fluoropentyl)-1H-indol-3-yl]-methanone]",inhibition of UGT2B7-catalyzed naloxone 3-β-D-glucuronidation,UGT2B7,negligibly inhibited
same,inhibition of UGT1A1-catalyzed SN-38 glucuronidation,UGT1A1,negligibly inhibited
